According to US12624309B2, “Enol ether properfume” (Firmenich SA, priority 2020, dated 2026):

Test: Acid-catalyzed hydrolysis of enol ethers in THF/1 M HCl, percent remaining by GC-FID
Assay type: physicochemical
Details: for percent remaining, 24 h / percent remaining, 48 h / percent remaining, 72 h / percent remaining, 168 h / percent remaining, 336 h / percent remaining, 504 h / percent remaining, 672 h / percent remaining, initial / rate of hydrolysis / hydrolytic stability compared to corresponding enol ethers prepared from alkyl alcohols: THF/1M HCl (80:20 v/v); for percent remaining, 24 h / percent remaining, 48 h / percent remaining, 72 h / percent remaining, 168 h / percent remaining, 336 h / percent remaining, 504 h / percent remaining, 672 h / percent remaining, initial: room temperature; for percent remaining, initial: time zero; for rate of hydrolysis / hydrolytic stability compared to corresponding enol ethers prepared from alkyl alcohols: in words; for enol ether remained after 504 h (21 days): Table 1, THF/1M HCl
Method: Each enol ether was dissolved in a 4:1 THF/1 M HCl mixture and the percent remaining over time measured relative to an internal standard.
After mixing, 2 mL of this solution were removed with a volumetric pipet and used to obtain the time zero measurement. 2 mL of 1 M HCl were mixed with the remaining 8 mL of the THF solution. This mixture was divided into 5 mL vials (1 mL per vial). The vials were gently topped with nitrogen and fitted with screw caps around which parafilm was wrapped. The vials were stored at room temperature until analyzed. For analyses, 2 mL of ethyl acetate was added to a vial and mixed. After phase separation, the top phase was collected and washed with saturated sodium carbonate (1 mL). Samples of the organic phase were analyzed by GC-FID. For the time zero sample, 0.5 mL of deionized water was added to the 2 mL taken from the original THF solution. 1 mL of this solution was added to a 5 mL vial and diluted with 2 mL of ethyl acetate and mixed. The top phase was collected and washed with saturated sodium carbonate (1 mL). The top phase then was analyzed by GC-FID. The percent of enol ether remaining was determined by dividing the peak area ratio of the enol ether to internal standard by the ratio measured at time zero.

Row | Compound | percent remaining, 24 h | percent remaining, 48 h | percent remaining, 72 h | percent remaining, 168 h | percent remaining, 336 h | percent remaining, 504 h | percent remaining, 672 h | percent remaining, initial | rate of hydrolysis / hydrolytic stability compared to corresponding enol ethers prepared from alkyl alcohols | enol ether remained after 504 h (21 days)
1 | COC(=O)C(C)(C)OC=Cc1ccccc1 [Compound 10, methyl 2-methyl-2-(styryloxy)propanoate] | 97.2% | 95.3% | 93.7% | 86.0% | 77% | 70.8% | 64.1% | 100% | – | –
2 | CC(=COCCc1ccccc1)c1ccc(C)cc1 [1-methyl-4-(1-phenethoxyprop-1-en-2-yl)benzene, reference compound] | 97.8% | 95.5% | 93.9% | 85.0% | 70.4% | 57.3% | 42.5% | 100% | – | –
3 | CCC(C)OC(=O)C(C)OC=C(C)c1ccc(C)cc1 (racemic) [Compound 46, (±)-sec-butyl 2-((2-(p-tolyl)prop-1-en-1-yl)oxy)propanoate] | 98.0% | 97.0% | 95.8% | 90.9% | 82.4% | 74.5% | 66.6% | 100% | Slower rates of hydrolysis | –
4 | CCC(C)OC(=O)C(C)OC=C(C)c1ccc(OC)cc1 (racemic) [Compound 49, (±)-sec-butyl 2-((2-(4-methoxyphenyl)prop-1-en-1-yl)oxy)propanoate] | 96.8% | 94.8% | 93.8% | 87.6% | 76.9% | 67.6% | 56.2% | 100% | – | –
5 | CC(=COCCc1ccccc1)c1ccccc1 [(1-phenethoxyprop-1-en-2-yl)benzene, reference compound] | 98.4% | 96.5% | 93.8% | 86.1% | 72.7% | 59.0% | 43.7% | 100% | – | –
6 | CCCCCC(CC)OC=Cc1ccccc1 (centres unmarked) [(2-(octan-3-yloxy)vinyl)benzene, reference compound] | 84.9% | 72.0% | 61.7% | 33.6% | 10% | 4.5% | 0% | 100% | – | 4.5%
7 | CCCCCC(CC)OC(=O)C(C)OC=Cc1ccccc1 (racemic) [Compound 41, (±)-octan-3-yl 2-(styryloxy)propanoate] | 99.7% | 99.2% | 98.1% | 94.1% | 91.7% | 88.4% | 84.4% | 100% | – | –
8 | C(=Cc1ccccc1)OCCc1ccccc1 [(2-phenethoxyvinyl)benzene, reference compound] | 94.6% | 90.0% | 83.7% | 66.4% | 45.2% | 35.9% | 25.0% | 100% | – | 39.5%
9 | CC/C=C\CCOC(=O)C(C)OC=C(C)c1ccc(OC)cc1 (racemic) [Compound 47, (±)-(Z)-hex-3-en-1-yl 2-((2-(4-methoxyphenyl)prop-1-en-1-yl)oxy)propanoate] | 96.6% | 94.4% | 91.2% | 81.6% | 65.0% | 51.1% | 40.0% | 100% | – | –
10 | COC(=O)C(C)(C)OC=C(C)c1ccc(C)cc1 [Compound 28, (±)-methyl 2-methyl-2-((2-(p-tolyl)prop-1-en-1-yl)oxy)propanoatemethyl] | 99.3% | 98.5% | 98.5% | 96.2% | 92.1% | 89.7% | 85.8% | 100% | Slower rates of hydrolysis | –
11 | CC(=COC(C)(C)CCCC(C)C)c1ccccc1 [(1-(2,6-dimethylheptan-2-yloxy)prop-1-en-2-yl)benzene, reference compound] | 92.9% | 85.7% | 80.5% | 60.3% | 41.7% | 28.1% | 17.9% | 100% | – | –
12 | COC(=O)C(C)(C)OC=C(C)c1ccccc1 [Compound 25, methyl 2-methyl-2-((2 phenylprop-1-en-1-yl)oxy)propanoate] | – | – | 100% | 98.1% | 93.6% | 90.0% | 89.6% | 100% | improved hydrolytic stability | –
13 | CCCCCC(CC)OC(=O)C(C)OC=C(C)c1ccccc1 (racemic) [Compound 44, (±)-octan-3-yl 2-((2-phenylprop-1-en-1-yl)oxy)propanoate] | 99.3% | 99.5% | 98.9% | 96.5% | 93.3% | 90.4% | 88.6% | 100% | improved hydrolytic stability | –
14 | CC/C=C\CCOC(=O)C(C)OC=Cc1ccccc1 (racemic) [Compound 39, (±)-(Z)-hex-3-en-1-yl 2-(styryloxy)propanoate] | 96.3% | 95.3% | 90.7% | 79.6% | 67.3% | 53.0% | 41.2% | 100% | – | –
15 | CC/C=C\CCOC=Cc1ccc(OC)cc1 [Compound 51, 1-(2-(((Z)-hex-3-en-1-yl)oxy)vinyl)-4-methoxybenzene, reference compound] | 89.1% | 80.2% | 72.4% | 52.5% | 29.1% | 14.6% | 10.1% | 100% | – | 14.6%
16 | COC(=O)C(C)(C)OC=C(C)c1ccc(OC)cc1 [Compound 27, methyl 2-((2-(4-methoxyphenyl)prop-1-en-1-yl)oxy)-2-methylpropanoate] | 102% | 101% | 99.7% | 97.8% | 87.7% | 89.1% | 84.7% | 100% | – | –
17 | CCCCCC(CC)OC=C(C)c1ccccc1 (centres unmarked) [(1-(octan-3-yloxy)prop-1-en-2-yl)benzene, reference compound] | 96.2% | 92.4% | 89.3% | 76.6% | 57.3% | 44.5% | 33.6% | 100% | – | –
18 | CC(OC=Cc1ccccc1)C(=O)OCCc1ccccc1 (racemic) [Compound 40, (±)-phenethyl 2-(styryloxy)propanoate] | 97.3% | 95.0% | 91.8% | 78.5% | 59.0% | 53.0% | 41.4% | 100% | – | –
19 | CC/C=C\CCOC(=O)C(C)OC=Cc1ccc(OC)cc1 (racemic) [Compound 42, (±)-(Z)-hex-3-en-1-yl 2-((4-methoxystyryl)oxy)propanoate] | 95.1% | 93.9% | 89.8% | 78.1% | 60.1% | 46.8% | 35.2% | 100% | – | 46.8%
